Drawing on patent US9540343B2 (Gilead Sciences, Inc., priority 2011, dated 2017), this text covers CC50 and inhibition for 16 compounds.

The nature of data set [1]: in vitro. The gist of the method: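 Cytoprotection read-out: CellTiter-Glo chemiluminescence after 5 days at 37 °C of HIV-IIIb-infected MT-4 cells (m.o.i. 0.003) with compound in 10-point 3-fold dilutions, quadruplicate, 10% FBS. Cytotoxicity (CC50) measured identically without virus.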
The subject of data set [2] is HIV-IIIb. In words: Test A: Antiviral assay in MT4 cells. In kind it is cell-based, HIV-1. The following applies: Human immunodeficiency virus 1, IIIB, MT4, 120 h, read-out: % inhibition at 2 μM, percent inhibition of virus-induced cell killing, from dose response curve at 2 uM drug; MT-4 cells infected with HIV-IIIb, 5 days, CellTiter-Glo.
Setting [3] is: human, uninfected MT-4 cells, CC50 (nM), same protocol as Test A, CellTiter-Glo.

Take `O=C(Cc1c[nH]c2ccc(F)cc12)N[C@@H](Cc1cc(F)cc(F)c1)c1ncccc1-c1ccc(Cl)c(Cl)c1` [Example 396, (S)—N-(1-(3-(3,4-dichlorophenyl)pyridin-2-yl)-2-(3,5-difluorophenyl)ethyl)-2-(5-fluoro-1H-indol-3-yl)acetamide]: the CC50 (as a rule, the concentration giving 50% cytotoxicity) at 5 days in data set [1] (setting [3]) was 10000 nM. Also, the inhibition (in general, the change of the read-out against control, counted positive when it falls) at 2 µM in data set [2] was 39%.
Compound `CCOC(=O)c1cn(CC(=O)N[C@@H](Cc2cc(F)cc(F)c2)c2ncccc2-c2ccc(F)c(C(N)=O)c2)nc1C(F)(F)F` [Example 289, (S)-ethyl 1-(2-(1-(3-(3-carbamoyl-4-fluorophenyl)pyridin-2-yl)-2-(3,5-difluorophenyl)ethylamino)-2-oxoethyl)-3-(trifluoromethyl)-1H-pyrazole-4-carboxylate] gave a CC50 at 5 days in data set [1] (setting [3]) of 26400 nM. For the same compound, the inhibition at 2 µM in data set [2] was found to be 2%.
The matching figures for `NC(=O)c1cc(-c2cccnc2[C@H](Cc2cc(F)cc(F)c2)NC(=O)Cn2c(C(F)(F)F)cc3ccccc32)ccc1F` [Example 599, (S)-5-(2-(2-(3,5-difluorophenyl)-1-(2-(2-(trifluoromethyl)-1H-indol-1-yl)acetamido)ethyl)pyridin-3-yl)-2-fluorobenzamide]: 31600 nM and 2%.
The like results for `NC(=O)c1cc(-c2cccnc2[C@H](Cc2cc(F)cc(F)c2)NC(=O)Cn2ncc3ccc(O)cc32)ccc1F` [Example 588, (S)-5-(2-(2-(3,5-difluorophenyl)-1-(2-(6-hydroxy-1H-indazol-1-yl)acetamido)ethyl)pyridin-3-yl)-2-fluorobenzamide] were, in that order, 21500 nM and 2%.
As to `CC(C(=O)N[C@@H](Cc1cc(F)cc(F)c1)c1ncccc1-c1ccc(F)c(C(N)=O)c1)n1nc(C(F)(F)F)cc1C1CC1` (stereo partly drawn) [Example 519, 5-(2-((1S)-1-(2-(5-cyclopropyl-3-(trifluoromethyl)-1H-pyrazol-1-yl)propanamido)-2-(3,5-difluorophenyl)ethyl)pyridin-3-yl)-2-fluorobenzamide], the midpoint of cytotoxicity in data set [1] (setting [3]), the CC50 at 5 days, lay at 20300 nM. For the same compound, the inhibition at 2 µM in data set [2] amounted to 65%.
With `CC(=O)c1cn(CC(=O)N[C@@H](Cc2cc(F)cc(F)c2)c2ncccc2-c2cccc(C(N)=O)c2)c2ccccc12` [Example 500, (S)-3-(2-(1-(2-(3-acetyl-1H-indol-1-yl)acetamido)-2-(3,5-difluorophenyl)ethyl)pyridin-3-yl)benzamide], in data set [1] (human, CC50 (nM), uninfected MT-4 cells, same protocol as Test A, CellTiter-Glo), the cytotoxic concentration (CC50) at 5 days stood at 24300 nM. Further, the inhibition at 2 µM in data set [2] worked out at 59%.
Compound `O=C(Cn1nc(C(F)(F)F)c2c1CCCC2)N[C@@H](Cc1cc(F)cc(F)c1)c1ncccc1-c1cccc(OC(F)(F)F)c1` [Example 84, (S)—N-(2-(3,5-difluorophenyl)-1-(3-(3-(trifluoromethoxy)phenyl)pyridin-2-yl)ethyl)-2-(3-(trifluoromethyl)-4,5,6,7-tetrahydro-1H-indazol-1-yl)acetamide] had a CC50 at 5 days in data set [1] (setting [3]) of 9050 nM. Also, the inhibition at 2 µM in data set [2] turned out to be 18%.
The matching figures for `O=C(Cn1nc(C(F)F)c2c1C(F)(F)C1CC21)N[C@@H](Cc1cc(F)cc(F)c1)c1ncccc1-c1ccc(OCC2CC2)cc1` (stereo partly drawn) [Example 206, N—((S)-1-(3-(4-(cyclopropylmethoxy)phenyl)pyridin-2-yl)-2-(3,5-difluorophenyl)ethyl)-2-(3-(difluoromethyl)-5,5-difluoro-3b,4,4a,5-tetrahydro-1H-cyclopropa[3,4]cyclopenta[1,2-c]pyrazol-1-yl)acetamide]: 20000 nM and 54%.
For the compound `COc1ccc(-c2cccnc2[C@H](Cc2cccc(F)c2)NC(=O)Cc2c[nH]c3ccc(O)cc23)cc1` [Example 28, (S)—N-(2-(3-fluorophenyl)-1-(3-(4-methoxyphenyl)pyridin-2-yl)ethyl)-2-(5-hydroxy-1H-indol-3-yl)acetamide], the CC50 at 5 days in data set [1] (setting [3]) came to 26000 nM. In data set [2], the inhibition at 2 µM came to 93%.
`O=C1Cc2c(cccc2-c2cccnc2[C@H](Cc2cc(F)cc(F)c2)NC(=O)Cn2nc(C(F)F)c3c2C(F)(F)CCC3(F)F)N1` [Example 489D, (S)-2-(3-(difluoromethyl)-4,4,7,7-tetrafluoro-4,5,6,7-tetrahydro-1H-indazol-1-yl)-N-(2-(3,5-difluorophenyl)-1-(3-(2-oxoindolin-4-yl)pyridin-2-yl)ethyl)acetamide] returned a CC50 at 5 days in data set [1] (setting [3]) of 20800 nM. In data set [2], the inhibition at 2 µM was found to be 97%.
As to `CC12CCC(c3c(C(F)(F)F)nn(CC(=O)N[C@@H](Cc4cc(F)cc(F)c4)c4ncccc4-c4ccc(F)c(C(N)=O)c4)c31)C2(C)C` (stereo partly drawn) [Example 74D, (S)-5-(2-(2-(3,5-difluorophenyl)-1-(2-(L-4,5,6,7-Tetrahydro-3-trifluoromethyl-7,8,8-trimethyl-1H-4,7-(methano)indazol-1-yl)acetamido)ethyl)pyridin-3-yl)-2-fluorobenzamide], it took 8470 nM to reach half-maximal cytotoxicity in data set [1] (setting [3]) (CC50 at 5 days). For the same compound, in data set [2], the inhibition at 2 µM worked out at 4%.
The matching figures for `Cc1c(C(F)F)nn(CC(=O)N[C@@H](Cc2cc(F)cc(F)c2)c2ncccc2-c2ccc(F)c(C(N)=O)c2)c1C(F)F` [Example 493, (S)-5-(2-(1-(2-(3,5-bis(difluoromethyl)-4-methyl-1H-pyrazol-1-yl)acetamido)-2-(3,5-difluorophenyl)ethyl)pyridin-3-yl)-2-fluorobenzamide]: 33900 nM and 48%.
In data set [1] (setting [3]), `Cc1cc2ncn(CC(=O)N[C@H](Cc3cc(F)cc(F)c3)c3ncncc3-c3ccc(Cl)cc3)c2cc1C` [Example 279G, (R)—N-(1-(5-(4-chlorophenyl)pyrimidin-4-yl)-2-(3,5-difluorophenyl)ethyl)-2-(5,6-dimethyl-1H-benzo[d]imidazol-1-yl)acetamide] came in with a CC50 at 5 days of 9300 nM. Further, the inhibition at 2 µM in data set [2] was determined as 82%.
In data set [1] (setting [3]), `NC(=O)c1cc(-c2cccnc2[C@H](Cc2cc(F)cc(F)c2)NC(=O)Cc2n[nH]c3ccccc23)ccc1F` [Example 469, 5-(2-(1-(2-(1H-indazol-3-yl)acetamido)-2-(3,5-difluorophenyl)ethyl)pyridin-3-yl)-2-fluorobenzamide] returned a CC50 at 5 days greater than 53200 nM. Moreover, the inhibition at 2 µM in data set [2] worked out at 17%.
The like results for `NC(=O)c1cc(-c2cccnc2[C@H](Cc2cc(F)cc(F)c2)NC(=O)C2CCCN2Cc2ccccc2)ccc1F` (stereo partly drawn) [Example 166, 1-benzyl-N—((S)-1-(3-(3-carbamoyl-4-fluorophenyl)pyridin-2-yl)-2-(3,5-difluorophenyl)ethyl)pyrrolidine-2-carboxamide] were, in that order, 6360 nM and 0%.
Regarding `CCN(CC)S(=O)(=O)c1ccc(-c2cccnc2[C@H](Cc2cc(F)cc(F)c2)NC(=O)Cn2nc(C(F)F)c3c2C(F)(F)C2CC32)cc1` (stereo partly drawn) [Example 116, (S)—N-(1-(3-(4-(N,N-diethylsulfamoyl)phenyl)-pyridin-2-yl)-2-(3,5-difluorophenyl)ethyl)-2-(3-(difluoromethyl)-5,6-dihydro-4,5-(methano)-6,6-difluoro-cyclopenta[c]pyrazol-1(4H)-yl)acetamide], the CC50 at 5 days in data set [1] (setting [3]) was greater than 53200 nM. For the same compound, the inhibition at 2 µM in data set [2] stood at 72%.
